Source: paper PMC5890513 (Antiviral Chemistry & Chemotherapy, 2017)

Legend:
SFTSV = assay: microbe, parasite or virus in culture; assay type: cell-based, severe fever with thrombocytopenia syndrome virus; conditions: for EC50: Severe fever with thrombocytopenia syndrome virus, Vero, 72 h, read-out: EC50 (50% effective concentration), anti-SFTSV activity
in vitro = conditions: monkey

| Compound | EC50 (SFTSV) [µM] | CC50 (in vitro) [µM] | anti-SFTSV activity (intracellular SFTSV RNA level), in words (SFTSV) | viability of mock-infected Vero cells (Vero cells) |
| --- | --- | --- | --- | --- |
| CCN(CC)Cc1cc(Nc2ccnc3cc(F)ccc23)ccc1O [Compound 2, 4-(7-Fluoroquinolin-4-ylamino)-2-diethylaminomethylphenol] | 36.6 ± 9.3 | > 100 |  |  |
| CCN(CC)Cc1cc(Nc2ccnc3cc(Br)ccc23)ccc1O [Compound 3, 4-(7-Bromoquinolin-4-ylamino)-2-diethylaminomethylphenol] | 31.1 ± 16.8 | > 100 |  |  |
| CCN(CC)Cc1cc(Nc2ccnc3cc(I)ccc23)ccc1O [Compound 4, 4-(7-Iodoquinolin-4-ylamino)-2-diethylaminomethylphenol] | 15.6 ± 4.9 | > 100 |  |  |
| CCN(CC)Cc1cc(Nc2ccnc3cc(Cl)ccc23)ccc1O [Compound 1, 4-(7-Chloroquinolin-4-ylamino)-2-diethylaminomethylphenol] | 19.1 ± 5.1 | > 100 | selective inhibitor of SFTSV replication |  |
| NC(=O)c1ncn([C@@H]2O[C@H](CO)[C@@H](O)[C@H]2O)n1 [Ribavirin] | 40.1 ± 16.3 | > 100 | reduced the intracellular SFTSV RNA level in a dose-dependent manner | did not reduce the viability |
| NC(=O)c1nc(F)c[nH]c1=O [Favipiravir] | 25 ± 9.3 | > 100 | reduced the intracellular SFTSV RNA level in a dose-dependent manner | did not reduce the viability |
